In article PMC7188728, “A phase I study investigation of metabolism, and disposition of [^14C]-anlotinib after an oral administration in patients with advanced refractory solid tumors” (Cancer Chemotherapy and Pharmacology, 2020):
Counter-ions that a name gives are not always drawn.

Tests used:
[1] = Adverse events after a single dose of 14C anlotinib suspension; format: in vivo, human
VEGFR2/KDR and VEGFR3 = tested on: VEGFR2/KDR and VEGFR3; parameters: method as in PMID 29454091; settings: recombinant enzymes; cited from earlier work

COc1cc2c(Oc3ccc4[nH]c(C)cc4c3F)ccnc2cc1OCC1(N)CC1 [anlotinib, 1-[[4-(4-fluoro-2-methyl-1H-indol-5-yloxy)-6-methoxyquinolin-7-yl]oxy]methyl) cyclopropanamine dihydrochloride]
1 (16.67%) n (%): Alkaline phosphatase increased: number of cases of grade 1/2 (%) ([1]; D1 ~ D18, N = 6) | Anemia: number of cases of grade 1/2 (%) ([1]; D1 ~ D18, N = 6) | Aspartate aminotransferase increased: number of cases of grade 3 (%) ([1]; D1 ~ D18, N = 6) | Cough: number of cases of grade 1/2 (%) ([1]; D1 ~ D18, N = 6) | Diarrhea: number of cases of grade 1/2 (%) ([1]; D1 ~ D18, N = 6) | Hypertriglyceridemia: number of cases of grade 1/2 (%) ([1]; D1 ~ D18, N = 6) | Hypocalcemia: number of cases of grade 1/2 (%) ([1]; D1 ~ D18, N = 6) | Hypophosphatemia: number of cases of grade 1/2 (%) ([1]; D1 ~ D18, N = 6) | Hypophosphatemia: number of cases of grade 3 (%) ([1]; D1 ~ D18, N = 6) | Hypothyroidism: number of cases of grade 1/2 (%) ([1]; D1 ~ D18, N = 6) | Increased alanine aminotransferase: number of cases of grade 1/2 (%) ([1]; D1 ~ D18, N = 6) | Increased alanine aminotransferase: number of cases of grade 3 (%) ([1]; D1 ~ D18, N = 6) | Increased blood bilirubin: number of cases of grade 1/2 (%) ([1]; D1 ~ D18, N = 6) | Increased blood bilirubin: number of cases of grade 3 (%) ([1]; D1 ~ D18, N = 6) | Increased lactate dehydrogenase: number of cases of grade 1/2 (%) ([1]; D1 ~ D18, N = 6) | Increased γ-glutamyl transpeptidase: number of cases of grade 1/2 (%) ([1]; D1 ~ D18, N = 6) | Increased γ-glutamyl transpeptidase: number of cases of grade 3 (%) ([1]; D1 ~ D18, N = 6) | Liver function damage: number of cases of grade 3 (%) ([1]; D1 ~ D18, N = 6) | Proteinuria: number of cases of grade 1/2 (%) ([1]; D1 ~ D18, N = 6) | Rapid atrial fibrillation: number of cases of grade 1/2 (%) ([1]; D1 ~ D18, N = 6) | Sinus bradycardia: number of cases of grade 1/2 (%) ([1]; D1 ~ D18, N = 6) | Sinus tachycardia: number of cases of grade 1/2 (%) ([1]; D1 ~ D18, N = 6) | Stomachache: number of cases of grade 1/2 (%) ([1]; D1 ~ D18, N = 6) | Alkaline phosphatase increased: number of cases of grade 1/2 (%) ([1]; Research process, N = 6) | Anemia: number of cases of grade 1/2 (%) ([1]; Research process, N = 6) | Aspartate aminotransferase increased: number of cases of grade 3 (%) ([1]; Research process, N = 6) | Cough: number of cases of grade 1/2 (%) ([1]; Research process, N = 6) | Hemoptysis: number of cases of grade 1/2 (%) ([1]; Research process, N = 6) | Hypertriglyceridemia: number of cases of grade 1/2 (%) ([1]; Research process, N = 6) | Hypocalcemia: number of cases of grade 1/2 (%) ([1]; Research process, N = 6) | Hypophosphatemia: number of cases of grade 1/2 (%) ([1]; Research process, N = 6) | Hypophosphatemia: number of cases of grade 3 (%) ([1]; Research process, N = 6) | Hypothyroidism: number of cases of grade 1/2 (%) ([1]; Research process, N = 6) | Increased alanine aminotransferase: number of cases of grade 1/2 (%) ([1]; Research process, N = 6) | Increased alanine aminotransferase: number of cases of grade 3 (%) ([1]; Research process, N = 6) | Increased blood bilirubin: number of cases of grade 1/2 (%) ([1]; Research process, N = 6) | Increased blood bilirubin: number of cases of grade 3 (%) ([1]; Research process, N = 6) | Increased lactate dehydrogenase: number of cases of grade 1/2 (%) ([1]; Research process, N = 6) | Increased γ-glutamyl transpeptidase: number of cases of grade 1/2 (%) ([1]; Research process, N = 6) | Increased γ-glutamyl transpeptidase: number of cases of grade 3 (%) ([1]; Research process, N = 6) | Liver function damage: number of cases of grade 3 (%) ([1]; Research process, N = 6) | Proteinuria: number of cases of grade 1/2 (%) ([1]; Research process, N = 6) | Rapid atrial fibrillation: number of cases of grade 1/2 (%) ([1]; Research process, N = 6) | Sinus bradycardia: number of cases of grade 1/2 (%) ([1]; Research process, N = 6) | Sinus tachycardia: number of cases of grade 1/2 (%) ([1]; Research process, N = 6) | Stomachache: number of cases of grade 1/2 (%) ([1]; Research process, N = 6)
five: Patients in whom adverse events occurred ([1]; six patients, after a single dosage)
approximately 20 times: Capability to inhibit VEGFR2/KDR and VEGFR3, times stronger compared with sunitinib (VEGFR2/KDR and VEGFR3)
~500 times: Capability to inhibit VEGFR2/KDR and VEGFR3, times stronger compared with sorafenib (VEGFR2/KDR and VEGFR3)
5 (83.33%) n (%): At least once (any adverse event): number of cases of grade 1/2 (%) ([1]; D1 ~ D18, N = 6)
2 (33.33%) n (%): Constipation: number of cases of grade 1/2 (%) ([1]; D1 ~ D18, N = 6) | Increased lipase: number of cases of grade 1/2 (%) ([1]; D1 ~ D18, N = 6) | Increased lipase: number of cases of grade 3 (%) ([1]; D1 ~ D18, N = 6) | Insomnia: number of cases of grade 1/2 (%) ([1]; D1 ~ D18, N = 6) | Constipation: number of cases of grade 1/2 (%) ([1]; Research process, N = 6) | Diarrhea: number of cases of grade 1/2 (%) ([1]; Research process, N = 6) | Increased lipase: number of cases of grade 1/2 (%) ([1]; Research process, N = 6) | Increased lipase: number of cases of grade 3 (%) ([1]; Research process, N = 6) | Insomnia: number of cases of grade 1/2 (%) ([1]; Research process, N = 6)
one: Patients in whom severe adverse events (SAE) occurred ([1]; six patients, follow-up period)
3 (50%) n (%): At least once (any adverse event): number of cases of grade 3 (%) ([1]; D1 ~ D18, N = 6) | Hypoalbuminemia: number of cases of grade 1/2 (%) ([1]; D1 ~ D18, N = 6) | At least once (any adverse event): number of cases of grade 3 (%) ([1]; Research process, N = 6) | Hypoalbuminemia: number of cases of grade 1/2 (%) ([1]; Research process, N = 6)
0 n (%): Alkaline phosphatase increased: number of cases of grade 3 (%) ([1]; D1 ~ D18, N = 6) | Anemia: number of cases of grade 3 (%) ([1]; D1 ~ D18, N = 6) | Aspartate aminotransferase increased: number of cases of grade 1/2 (%) ([1]; D1 ~ D18, N = 6) | Constipation: number of cases of grade 3 (%) ([1]; D1 ~ D18, N = 6) | Cough: number of cases of grade 3 (%) ([1]; D1 ~ D18, N = 6) | Diarrhea: number of cases of grade 3 (%) ([1]; D1 ~ D18, N = 6) | Hemoptysis: number of cases of grade 1/2 (%) ([1]; D1 ~ D18, N = 6) | Hemoptysis: number of cases of grade 3 (%) ([1]; D1 ~ D18, N = 6) | Hypertriglyceridemia: number of cases of grade 3 (%) ([1]; D1 ~ D18, N = 6) | Hypoalbuminemia: number of cases of grade 3 (%) ([1]; D1 ~ D18, N = 6) | Hypocalcemia: number of cases of grade 3 (%) ([1]; D1 ~ D18, N = 6) | Hypothyroidism: number of cases of grade 3 (%) ([1]; D1 ~ D18, N = 6) | Increased lactate dehydrogenase: number of cases of grade 3 (%) ([1]; D1 ~ D18, N = 6) | Insomnia: number of cases of grade 3 (%) ([1]; D1 ~ D18, N = 6) | Liver function damage: number of cases of grade 1/2 (%) ([1]; D1 ~ D18, N = 6) | Proteinuria: number of cases of grade 3 (%) ([1]; D1 ~ D18, N = 6) | Rapid atrial fibrillation: number of cases of grade 3 (%) ([1]; D1 ~ D18, N = 6) | Sinus bradycardia: number of cases of grade 3 (%) ([1]; D1 ~ D18, N = 6) | Sinus tachycardia: number of cases of grade 3 (%) ([1]; D1 ~ D18, N = 6) | Stomachache: number of cases of grade 3 (%) ([1]; D1 ~ D18, N = 6) | Alkaline phosphatase increased: number of cases of grade 3 (%) ([1]; Research process, N = 6) | Anemia: number of cases of grade 3 (%) ([1]; Research process, N = 6) | Aspartate aminotransferase increased: number of cases of grade 1/2 (%) ([1]; Research process, N = 6) | Constipation: number of cases of grade 3 (%) ([1]; Research process, N = 6) | Cough: number of cases of grade 3 (%) ([1]; Research process, N = 6) | Diarrhea: number of cases of grade 3 (%) ([1]; Research process, N = 6) | Hemoptysis: number of cases of grade 3 (%) ([1]; Research process, N = 6) | Hypertriglyceridemia: number of cases of grade 3 (%) ([1]; Research process, N = 6) | Hypoalbuminemia: number of cases of grade 3 (%) ([1]; Research process, N = 6) | Hypocalcemia: number of cases of grade 3 (%) ([1]; Research process, N = 6) | Hypothyroidism: number of cases of grade 3 (%) ([1]; Research process, N = 6) | Increased lactate dehydrogenase: number of cases of grade 3 (%) ([1]; Research process, N = 6) | Insomnia: number of cases of grade 3 (%) ([1]; Research process, N = 6) | Liver function damage: number of cases of grade 1/2 (%) ([1]; Research process, N = 6) | Proteinuria: number of cases of grade 3 (%) ([1]; Research process, N = 6) | Rapid atrial fibrillation: number of cases of grade 3 (%) ([1]; Research process, N = 6) | Sinus bradycardia: number of cases of grade 3 (%) ([1]; Research process, N = 6) | Sinus tachycardia: number of cases of grade 3 (%) ([1]; Research process, N = 6) | Stomachache: number of cases of grade 3 (%) ([1]; Research process, N = 6)
